The term inhibition denotes how much of the control response was suppressed. As usually defined, the LD50 is the dose expected to kill half of the subjects tested. The low end stands for greater toxicity, the high end for lower toxicity.

Series [1] relates to carbon tetrachloride (CCl4)-induced liver diseases. The series is described as follows: Pharmacological activity on carbon tetrachloride-induced liver diseases. It counts as in vivo, SD rats. To be noted: 5mg/kg rat twice, CCl4 1 ml/kg rat; for Total bilirubin: Table 27: CCl4 only 1.2, no administration 0.5; for GPT: Table 27: CCl4 only 818, no administration 16; for GOT: Table 27: CCl4 only 3308, no administration 144.

The target in series [2] is T1, aldose reductase of rabbit lens (Oryctolagus cuniculus, UniProt P15122).
T1 construct: to obtain electrophoretically homogeneous aldose reductase; from tissue; host or cells: rabbit lens
Kind of series: Inhibitory effect on aldose reductase of lens. It counts as biochemical. Conditions: read-out: Degree of inhibition for aldose reductase (%). On the procedure: (§1) 0.05 ml of 3mM NADPH, 0.1 ml of DL-glyceraldehyde and 0.04 ml of distilled water were added to 0.8 ml of 0.1M phosphoric acid buffer (pH 6.2) and left to stand at 25°C for 3 minutes. Then, 0.01 ml of the aldose reductase solution was added thereto to start reaction and decreasing of absorbance of 340 nm was measured at 25°C with time. Amount of enzyme which consumes 1 µmole of NADPH for 1 minute was taken as 1 unit.
Enzyme activity was measured under the same conditions as in the above measurement of aldose reductase activity except that 0.04 ml of aqueous solution of inhibitory substance in various concentrations was added in place of 0.04 ml of distilled water and degree of inhibition was calculated from comparison of the enzyme activity with the enzyme activity obtained in the absence of inhibitor. (1) OPQ, (2) methyl OPQ, (3) 1-methylpropyl OPQ, (4) 2-methylpropyl OPQ, (5) 2-carbamoylethyl OPQ, (6) hydroxymethyl OPQ, (7) 2-methylthioethyl OPQ, (8) 2-carboxyethyl OPQ, (9) 4-hydroxybenzyl OPQ, (10) 1-methylethyl OPQ, and (11) benzyl OPQ were used as inhibition substances and (12) PQQ was used as control.
Lens of rabbit was homogenized with 10mM phosphoric acid buffer (pH 7.0) containing 2mM dithiothreitol in an amount of two times the volume of the lens and subjected to centrifugation. The supernatant liquid was purified by affinity chromatography, gel filtration and chromatofocusing to obtain electrophoretically homogeneous aldose reductase. Using (1) OPQ, (2) 1-methylpropyl OPQ, (3) 2-methylpropyl OPQ, (4) hydroxymethyl OPQ, and (5) 1-methylethyl OPQ as inhibition substances, degree of inhibition of these substances for aldose reductase of rabbit lens was examined in the same manner in Example 32.

For another series, the system named is kidney. Kind of series: Toxicity to kidney determined by blood examination. It counts as in vivo, mice. On the procedure:
After one day from administration, the mice were fasted (only water was given) and after lapse of 18 hours, blood was collected and serum was obtained therefrom. Glucose, urea nitrogen and creatinine in the serum were examined using FUJI Dry Chemslide (manufactured by Fuji Photo Film Co., Ltd.). […]
Thereafter, the mice were fasted (with giving only water) and after lapse of 18 hours, blood was collected and serum was obtained therefrom. Contents of glucose, urea nitrogen and creatinine in serum were obtained using FUJI Dry Chemslide. The results were shown by average value for eight mice.

The target in series [3] is aldose reductase of kidney (Canis lupus familiaris, UniProt A0A8I3P2L6). The series is described as follows: Inhibitory effect on aldose reductase of kidney. It counts as biochemical, dog. Conditions: read-out: Degree of inhibition for aldose reductase (%); for inhibition at 0.5 µM: concentration 5x10^-7 M. On the procedure: as §1, with “Medulla of kidney of dog was homogenized with 10mM phosphoric acid buffer (pH 7.0) containing 2mM dithiothreitol in an amount of four times the volume of kidney medulla and subjected to centrifugation. The supernatant liquid was purified by affinity chromatography, gel filtration and chromatofocusing to obtain electrophoretically homogeneous aldose reductase. 0.05” for “0.05”

The next series relates to male SPF-ICR mice. The series is described as follows: in vivo. On the procedure: (§2) (1) Acute toxicity test: • (i) To male SPF-ICR mice of 5 weeks old (supplied by Charles River Co.) were intraperitoneally administered PQQ·2Na and OPQs in the dosages of 20, 40, 80, 160 and 200 mg/kg body weight of mouse, respectively and they were bred at 25°C for 14 days. OPQ, 1-methylpropyl OPQ, 2-methylthioethyl OPQ, and benzyl OPQ were used as the OPQs. One group consisted of 8 mice. […] One group consisted of 8 mice. […] They were bred at 25°C for 14 days. One group consisted of eight mice. […] (2) Toxicity to kidney (i) Toxicity to kidney determined by urine examination: In the same manner as in the acute toxicity test, PQQ·2Na and OPQs were respectively intraperitoneally administered to mice and these mice were bred. Urine was collected every day and concentration of glucose in urine was obtained using Uristex II (manufactured by Miles·Sankyo Co.). […]

Series [4] can be described thus: Solubility of the isolated compound, described in words. It counts as physicochemical. To be noted: for solubility in water / solubility under neutral and alkaline conditions: water.
A short description of the next series: in vivo. Conditions: mouse, in vivo, ip. On the procedure: as §2
Another series relates to cataract. Kind of series: Anti-cataract effect, intraperitoneal administration, 50 % galactose fed rats. It counts as in vivo, Sprague-Davley rats. To be noted: for Body weight (average): 20mg/kg rat intraperitoneally once a day. On the procedure: Eightyfour male Sprague-Davley rats (supplied from Japan Charles Liver Co.) of four weeks old and having a body weight of 70 - 80 g were used and the following experiments were conducted. One group consisted of six rats.
The groups included normal group, 50 % galactose administration group, PQQ administration group, and OPQ administration group. Commercially available feeding stuff (manufactured by Japan Clea Co.) was given to the rats of normal group, and rats of 50 % galactose administration group, PQQ administration group and OPQ administration group were allowed to freely take powdery feeding stuff comprising a mixture of the above-mentioned commercially available powder feeding stuff and D-galactose for food additive in equal weight.
To the rats of PQQ and OPQ administration groups were intraperitoneally administered PQQ·2Na or OPQ in a dosage of 2 mg, 5 mg, 10 mg and 20 mg per 1 kg of rat once a day simultaneously with starting of galactose feeding and until termination of feeding.
On the 6th day and the 9th day from starting of experiment, eyeball was observed by stereoscopic microscope and judgment on cataract was made according to the following criteria. A0: No muddiness (normal) A1: Light white muddiness in the surface portion. A2: A slight heavy white muddiness in the surface portion. A3: Heavy white muddiness in the surface portion. A4: Heavy white muddiness in the surface portion and a slight white muddiness in the core portion. A5: Heavy white muddiness in the surface portion and the core portion.

[5] abbreviates: serum, 40 mg/kg mouse intraperitoneally, Table 2, no administration 0.8.
[6] abbreviates: serum, 40 mg/kg mouse intraperitoneally, Table 2, no administration 24.
The mark [7] stands for this setting: serum, 40 mg/kg mouse intraperitoneally, Table 2, no administration 78.
Setting [8] is: serum, 80 mg/kg mouse intraperitoneally, Table 2, no administration 0.8.
[9] abbreviates: serum, 80 mg/kg mouse intraperitoneally, Table 2, no administration 24.
The mark [10] stands for this setting: serum, 80 mg/kg mouse intraperitoneally, Table 2, no administration 78.
Setting [11] is: serum, 160 mg/kg mouse intraperitoneally, Table 2, no administration 0.8.
The mark [12] stands for this setting: serum, 160 mg/kg mouse intraperitoneally, Table 2, no administration 24.
Setting [13] is: serum, 160 mg/kg mouse intraperitoneally, Table 2, no administration 78.
The mark [14] stands for this setting: serum, 200 mg/kg mouse intraperitoneally, Table 2, no administration 0.8.
Where [15] appears, read: serum, 200 mg/kg mouse intraperitoneally, Table 2, no administration 24.
The mark [16] stands for this setting: serum, 200 mg/kg mouse intraperitoneally, Table 2, no administration 78.

In series [1], `CCC(C)c1nc2c3nc(C(=O)O)cc(C(=O)O)c3c3[nH]c(C(=O)O)cc3c2o1` (centres unmarked) [1-Methylpropyl OPQ, 5-(1-Methylpropyl)-2,8,10-tricarboxy-1H-oxazo[5,4-h]-pyrrolo[2,3-f]quinoline] came in with a Total bilirubin of 0.7 mg/dL. This molecule also yielded a GPT in series [1] of 182 U/l. This molecule registered a GOT in series [1] of 887 U/l. The inhibition at 1 µM in series [2] (concentration 1x10^-6 M) turned out to be 64.7%. In addition, the figures for the inhibition at 0.1 µM in series [2] (concentration 1x10^-7 M) and in series [3] (concentration 1x10^-7 M) were 24% and 32.6%, respectively. Also, the inhibition at 0.2 µM in series [2] (concentration 2x10^-7 M) came to 36.4%; in series [3] (concentration 2x10^-7 M), 45.9%. For the same molecule, the inhibition at 0.5 µM in series [2] (concentration 5x10^-7 M) turned out to be 50.8%; in series [3], 61.7%. The Creatinine in the series with kidney (setting [5]), in the series with kidney (setting [8]), in the series on kidney (setting [11]) and in the series with kidney (setting [14]) was 0.8 mg/dL in each case. For the same molecule, the Urea nitrogen with kidney (setting [6]) was determined as 26 mg/dL; with kidney (setting [9]) it was 22 mg/dL; in the series on kidney (setting [12]), 27 mg/dL; with kidney (setting [15]), 27 mg/dL. Moreover, the Glucose is 87 mg/dL in the series on kidney (setting [7]), 104 mg/dL with kidney (setting [10]), 87 mg/dL in the series on kidney (setting [13]) and 66 mg/dL with kidney (setting [16]). Moreover, in the series on male SPF-ICR mice (mouse, in vivo), the death of mice entry is listed as “no mice died”. The “solubility in acetone and diethyl ether” value in series [4] is given as “did not dissolve”. Also, the “solubility in lower alcohols” value in series [4] is “dissolved”. In series [4], the solubility in water result is “easily soluble”. Further, the “solubility under neutral and alkaline conditions” value in series [4] is “very easily soluble”.

For `O=C(O)c1cc(C(=O)O)c2c(n1)C(=O)C(=O)c1cc(C(=O)O)[nH]c1-2` [PQQ·2Na, reference compound], the Creatinine with kidney (mouse, in vivo, ip, 20 mg/kg) came out at 0.8 mg/dL; in the series on kidney (mouse, in vivo, ip, 40 mg/kg), 2.3 mg/dL; in the series with kidney (mouse, in vivo, ip, 80 mg/kg), 3.4 mg/dL; with kidney (mouse, in vivo, ip, 160 mg/kg) it was 4.2 mg/dL. The Glucose is 70 mg/dL in the series with kidney (mouse, in vivo, ip, 20 mg/kg); 60 mg/dL with kidney (mouse, in vivo, ip, 40 mg/kg); 57 mg/dL in the series on kidney (mouse, in vivo, ip, 80 mg/kg); 35 mg/dL in the series with kidney (mouse, in vivo, ip, 160 mg/kg). In addition, the Urea nitrogen in the series on kidney (mouse, in vivo, ip, 20 mg/kg) was determined as 25 mg/dL; with kidney (mouse, in vivo, ip, 40 mg/kg), 110 mg/dL; in the series with kidney (mouse, in vivo, ip, 80 mg/kg) it was 130 mg/dL; with kidney (mouse, in vivo, ip, 160 mg/kg), 139 mg/dL. This molecule gave a median lethal dose (LD50) at 336 h in “in vivo” of roughly 70 mg/kg. In addition, the death of mice entry with male SPF-ICR mice (80 mg intraperitoneally, 8 mice, 14 days) was “five mice died”; with male SPF-ICR mice (160 mg and 200 mg intraperitoneally, 8 mice, 14 days) it was “all of eight mice died”; in the series on male SPF-ICR mice (mouse, in vivo) it was “the mice survived”. The body weight entry in the series with cataract (10 mg and 20 mg/kg rat intraperitoneally once a day) is recorded as “reduction in body weight was recognized”. In addition, the “Body weight (average)” value is “* Body weight reduced (average 66 g). Body weight of rats of normal group was about 115 g on the average” with cataract (6th day, normal group about 115 g) and “** Body weight did not increase (average 77 g). Body weight of rats of normal group was about 141 g on the average” in the series on cataract (9th day, normal group about 141 g).

For `CSCCc1nc2c3nc(C(=O)O)cc(C(=O)O)c3c3[nH]c(C(=O)O)cc3c2o1` [2-Methylthioethyl OPQ, 5-(2-Methylthioethyl)-2,8,10-tricarboxy-1H-oxazo-[5,4-h]-pyrrolo[2,3-f]quinoline], the Total bilirubin in series [1] worked out at 0.7 mg/dL. This molecule also had a GPT in series [1] of 157 U/l. In series [1], this molecule gave a GOT of 693 U/l. For the same molecule, the Creatinine in the series on kidney (setting [5]) came out at 0.8 mg/dL; in the series on kidney (setting [8]), 0.7 mg/dL; with kidney (setting [11]), 0.6 mg/dL; in the series on kidney (setting [14]) it was 0.7 mg/dL. For the same molecule, the Urea nitrogen with kidney (setting [6]), in the series with kidney (setting [9]), in the series on kidney (setting [12]) and in the series on kidney (setting [15]) was 26 mg/dL each time. Further, the Glucose with kidney (setting [7]) is 96 mg/dL; in the series on kidney (setting [10]), 88 mg/dL; in the series on kidney (setting [13]), 97 mg/dL; in the series with kidney (setting [16]), 72 mg/dL. Moreover, the inhibition at 10 µM in series [3] (concentration 1x10^-5 M) came out at 83%. In series [3] (concentration 1x10^-6 M), the inhibition at 1 µM came out at 42%. The inhibition at 2 µM in series [3] (concentration 2x10^-6 M) came to 54.9%. Moreover, in series [3] (concentration 5x10^-6 M), the inhibition at 5 µM was 81.8%. Besides, in series [3], the inhibition at 0.5 µM turned out to be 24.3%. Further, the death of mice entry in the series on male SPF-ICR mice (mouse, in vivo) is “no mice died”. Moreover, the “solubility in acetone and diethyl ether” value in series [4] was “did not dissolve”. In series [4], the “solubility in lower alcohols” value is on record as “dissolved”. Moreover, the solubility in water result in series [4] was “easily soluble”. In series [4], the “solubility under neutral and alkaline conditions” value was “especially soluble”.

Values taken from patent EP0429333B1, “Process for producing oxazopyrroloquinolines, novel oxazopyrroloquinolines, and use of oxazopyrroloquinolines” (priority 1989, dated 1991).
